Source: PubChem BioAssay AID248 (DTP/NCI, 2004)
Values joined by “and” are separate entries in the source; they are usually repeats but may differ in a detail not shown here. Equal values may be shown once. Toxic doses and inconclusive results are not listed. Rule as the data show it: active = T/C of 150% or more; inactive = T/C below 125%.

Tested on: L1210 leukemia ip in BDF1 mice, survival T/C
Assay: NCI In Vivo Anticancer Drug Screen. Data for tumor model L1210 Leukemia (intraperitoneal) in B6D2F1 (BDF1) mice
Details: endpoint: mean survival time, higher = longer survival
Procedure, shortened: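 Tumor was transplanted into mice, which were then dosed with test compound or vehicle alone. Survival was recorded for each group, and the treated figure was expressed relative to the control figure.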

[1] = dose: 100.0 mg/kg/injection, schedule: Q01DX009 (ip), vehicle: saline with Tween-80
[2] = dose: 100.0 mg/kg/injection, schedule: Q04DX003 (ip), vehicle: saline with Tween-80
[3] = dose: 200.0 mg/kg/injection, schedule: Q04DX003 (ip), vehicle: saline with Tween-80
[4] = dose: 400.0 mg/kg/injection, schedule: Q04DX003 (ip), vehicle: saline with Tween-80
[5] = dose: 50.0 mg/kg/injection, schedule: Q01DX009 (ip), vehicle: saline
[6] = dose: 100.0 mg/kg/injection, schedule: Q01DX009 (ip), vehicle: saline
[7] = dose: 200.0 mg/kg/injection, schedule: Q01DX009 (ip), vehicle: saline
[8] = dose: 100.0 mg/kg/injection, schedule: Q01DX009 (ip), vehicle: Klucel (hydroxypropylcellulose) (HPC)
[9] = dose: 100.0 mg/kg/injection, schedule: Q04DX003 (ip), vehicle: Klucel (hydroxypropylcellulose) (HPC)
[10] = dose: 200.0 mg/kg/injection, schedule: Q01DX009 (ip), vehicle: Klucel (hydroxypropylcellulose) (HPC)
[11] = dose: 200.0 mg/kg/injection, schedule: Q04DX003 (ip), vehicle: Klucel (hydroxypropylcellulose) (HPC)
[12] = dose: 400.0 mg/kg/injection, schedule: Q01DX009 (ip), vehicle: Klucel (hydroxypropylcellulose) (HPC)
[13] = dose: 400.0 mg/kg/injection, schedule: Q04DX003 (ip), vehicle: Klucel (hydroxypropylcellulose) (HPC)
[14] = dose: 25.0 mg/kg/injection, schedule: Q04DX003 (ip), vehicle: Klucel (hydroxypropylcellulose) (HPC)
[15] = dose: 50.0 mg/kg/injection, schedule: Q01DX009 (ip), vehicle: Klucel (hydroxypropylcellulose) (HPC)
[16] = dose: 50.0 mg/kg/injection, schedule: Q04DX003 (ip), vehicle: Klucel (hydroxypropylcellulose) (HPC)
[17] = dose: 100.0 mg/kg/injection, schedule: Q01DX001 (ip), vehicle: saline
[18] = dose: 200.0 mg/kg/injection, schedule: Q01DX001 (ip), vehicle: saline
[19] = dose: 100.0 mg/kg/injection, schedule: Q01DX001 (ip), vehicle: saline with Tween-80

Measured: T/C

O=C(O)C1CC1Oc1ccccc1 (stereo not drawn)
inactive: [1] 96 % of control | [2] 110 % of control | dose: 200.0 mg/kg/injection, schedule: Q01DX009 (ip), vehicle: saline with Tween-80 92 % of control | [3] 108 % of control | dose: 400.0 mg/kg/injection, schedule: Q01DX009 (ip), vehicle: saline with Tween-80 87 % of control | [4] 106 % of control

CCCCCC(C[N+](C)(C)C)C(O)/C=C\c1ccccc1 (stereo not drawn)
inactive: dose: 2.5 mg/kg/injection, schedule: Q01DX009 (ip), vehicle: saline 97 % of control | dose: 5.0 mg/kg/injection, schedule: Q01DX009 (ip), vehicle: saline 97 % of control | dose: 5.0 mg/kg/injection, schedule: Q04DX003 (ip), vehicle: saline 103 % of control | dose: 10.0 mg/kg/injection, schedule: Q01DX009 (ip), vehicle: saline 99 % of control | dose: 10.0 mg/kg/injection, schedule: Q04DX003 (ip), vehicle: saline 98 % of control

OCC1COCOC1
inactive: [5] 104 % of control | [6] 106 % of control | dose: 100.0 mg/kg/injection, schedule: Q04DX003 (ip), vehicle: acetone 100 % of control | [7] 106 % of control | dose: 200.0 mg/kg/injection, schedule: Q04DX003 (ip), vehicle: acetone 105 % of control | dose: 400.0 mg/kg/injection, schedule: Q04DX003 (ip), vehicle: acetone 105 % of control

N#CC(C#N)=Cc1ccc(Cl)c(Cl)c1
inactive: dose: 50.0 mg/kg/injection, schedule: Q01DX001 (ip), vehicle: other 102 % of control | dose: 100.0 mg/kg/injection, schedule: Q01DX001 (ip), vehicle: other 107 % of control | [8] 92 % of control | [9] 96 % of control | dose: 200.0 mg/kg/injection, schedule: Q01DX001 (ip), vehicle: other 107 % of control | [10] 93 % of control | [11] 102 % of control | [12] 86 % of control | [13] 95 % of control

CCOC(=O)Nc1cc(N(C)CC(O)CN(C)c2ccccc2)c(N)c(N)n1 (stereo not drawn)
inactive: dose: 100.0 mg/kg/injection, schedule: Q01DX001 (ip), vehicle: Klucel (hydroxypropylcellulose) (HPC) 106 % of control | dose: 200.0 mg/kg/injection, schedule: Q01DX001 (ip), vehicle: Klucel (hydroxypropylcellulose) (HPC) 107 % of control | dose: 400.0 mg/kg/injection, schedule: Q01DX001 (ip), vehicle: Klucel (hydroxypropylcellulose) (HPC) 105 % of control

NC(=O)NC1C(c2ccccc2)=NOC1C(N)=O (stereo not drawn)
inactive: [14] 94 % of control | [15] 88 % of control | [16] 105 % of control | [8] 93 % of control | [9] 96 % of control

O=C1C=C/C(=N/S(=O)(=O)c2ccccc2)c2ccccc21
inactive: dose: 6.0 mg/kg/injection, schedule: Q01DX009 (ip), vehicle: DMSO 106 % of control | dose: 12.0 mg/kg/injection, schedule: Q01DX009 (ip), vehicle: DMSO 88 % of control | dose: 25.0 mg/kg/injection, schedule: Q01DX009 (ip), vehicle: DMSO 86 % of control | dose: 25.0 mg/kg/injection, schedule: Q04DX003 (ip), vehicle: DMSO 94 % of control | dose: 50.0 mg/kg/injection, schedule: Q04DX003 (ip), vehicle: DMSO 89 % of control | dose: 100.0 mg/kg/injection, schedule: Q04DX003 (ip), vehicle: DMSO 106 % of control and 88 % of control

CCCCN(CCCC)CC(O)c1cc(Cc2ccccc2)nc2c(Cl)cc(Cl)cc12 (stereo not drawn)
inactive: [2] 89 % of control | [3] 100 % of control | [4] 100 % of control

Nc1ccccc1C(O)c1ccccc1 (stereo not drawn)
inactive: [17] 104 % of control | [18] 106 % of control

COc1ccc(NC(=O)/C=C/C(=O)Nc2ccc(OC)cc2)cc1
inactive: [2] 100 % of control | [3] 112 % of control | [4] 100 % of control

CC(/C=N/NC(=O)c1cnccn1)=N/NC(=O)c1cnccn1
inactive: dose: 50.0 mg/kg/injection, schedule: Q01DX001 (ip), vehicle: water 108 % of control | dose: 100.0 mg/kg/injection, schedule: Q01DX001 (ip), vehicle: water 108 % of control | dose: 200.0 mg/kg/injection, schedule: Q01DX001 (ip), vehicle: water 103 % of control | dose: 400.0 mg/kg/injection, schedule: Q01DX001 (ip), vehicle: water 110 % of control

CC(C)(C)C1CCC2(CC1)CO2 (stereo not drawn)
inactive: [17] 98 % of control

COC1=C(Nc2ccc(C)cc2)C(=O)C(OC)=C(Nc2ccc(C)cc2)C1=O
inactive: dose: 50.0 mg/kg/injection, schedule: Q01DX001 (ip), vehicle: saline 98 % of control | [17] 93 % of control | [18] 95 % of control

CCOC(=S)c1ccc(S(=O)(=O)NCc2ccccc2)cc1
inactive: [19] 100 % of control | dose: 200.0 mg/kg/injection, schedule: Q01DX001 (ip), vehicle: saline with Tween-80 102 % of control | dose: 400.0 mg/kg/injection, schedule: Q01DX001 (ip), vehicle: saline with Tween-80 100 % of control

COc1ccccc1C(C(C)C)C(C)C
inactive: [2] 105 % of control | [3] 101 % of control

C[N+](C)(C)CC(O)COc1ccc(Cl)cc1Cl (stereo not drawn)
inactive: dose: 25.0 mg/kg/injection, schedule: Q04DX002 (ip), vehicle: Klucel (hydroxypropylcellulose) (HPC) 97 % of control | dose: 50.0 mg/kg/injection, schedule: Q04DX002 (ip), vehicle: Klucel (hydroxypropylcellulose) (HPC) 101 % of control | dose: 100.0 mg/kg/injection, schedule: Q04DX002 (ip), vehicle: Klucel (hydroxypropylcellulose) (HPC) 94 % of control and 89 % of control

O=[N+]([O-])c1ccc(OCc2cc(S(=O)(=O)F)ccc2Cl)c(Cl)c1
inactive: dose: 75.0 mg/kg/injection, schedule: Q04DX003 (ip), vehicle: gum acacia 100 % of control | dose: 150.0 mg/kg/injection, schedule: Q04DX003 (ip), vehicle: gum acacia 96 % of control | dose: 300.0 mg/kg/injection, schedule: Q04DX003 (ip), vehicle: gum acacia 91 % of control

N#C/C(=C1C=C/C(=N/O)C(Cl)=C/1)c1ccc(Cl)cc1
inactive: dose: 50.0 mg/kg/injection, schedule: Q01DX001 (ip), vehicle: carboxymethylcellulose (CMC) 96 % of control | dose: 100.0 mg/kg/injection, schedule: Q01DX001 (ip), vehicle: carboxymethylcellulose (CMC) 98 % of control | [2] 103 % of control | dose: 200.0 mg/kg/injection, schedule: Q01DX001 (ip), vehicle: carboxymethylcellulose (CMC) 93 % of control | [3] 97 % of control | dose: 400.0 mg/kg/injection, schedule: Q01DX001 (ip), vehicle: carboxymethylcellulose (CMC) 91 % of control | [4] 97 % of control

CN1CCC=C(C(=O)N(c2ccccc2)c2ccccc2)C1
inactive: [5] 106 % of control | [6] 101 % of control | dose: 100.0 mg/kg/injection, schedule: Q04DX003 (ip), vehicle: saline 93 % of control | [7] 97 % of control | dose: 200.0 mg/kg/injection, schedule: Q04DX003 (ip), vehicle: saline 98 % of control

CCCC[Si]CCCC
inactive: dose: 25.0 mg/kg/injection, schedule: Q01DX001 (ip), vehicle: saline with Tween-80 103 % of control | dose: 25.0 mg/kg/injection, schedule: Q01DX009 (ip), vehicle: saline with Tween-80 103 % of control | dose: 50.0 mg/kg/injection, schedule: Q01DX001 (ip), vehicle: saline with Tween-80 110 % of control | dose: 50.0 mg/kg/injection, schedule: Q01DX009 (ip), vehicle: saline with Tween-80 101 % of control | [19] 102 % of control | [1] 101 % of control

O=C(CCNNC(=O)c1ccncc1)NCc1ccccc1
inactive: dose: 25.0 mg/kg/injection, schedule: Q01DX009 (ip), vehicle: Klucel (hydroxypropylcellulose) (HPC) 101 % of control | [14] 101 % of control | [15] 110 % of control | [16] 114 % of control | [8] 97 % of control | [9] 95 % of control | [10] 101 % of control | [11] 86 % of control | [12] 101 % of control | [13] 95 % of control

CC(=O)C(/C=N/C(=O)N(C)C)=C(/C)O
inactive: [2] 98 % of control | [3] 104 % of control | [4] 104 % of control

CCCCCCCCCCCCCCC1CC(=O)OC1=O (stereo not drawn)
inactive: [8] 92 % of control | [9] 86 % of control | [10] 86 % of control | [11] 88 % of control | [13] 93 % of control
